The values that follow come from US20020192821A1, “Increased functional activity and/or expression of ABC transporters protects against the loss of dopamine neurons associated with Parkinson's disease” (Active Pass Pharmaceuticals, Inc., priority 2001, published 2002).

For one assay, the target named is T1, ABCG4 transporter (Homo sapiens, UniProt Q9H172).
T1 construct: expressed in transfected cells; host or cells: hDAT-SK-N-MC (human neuroblastoma SK-N-MC stably expressing hDAT), transient transfection, pCEP4 or pcDNA3.1
T1 sequence (Q9H172 whole entry): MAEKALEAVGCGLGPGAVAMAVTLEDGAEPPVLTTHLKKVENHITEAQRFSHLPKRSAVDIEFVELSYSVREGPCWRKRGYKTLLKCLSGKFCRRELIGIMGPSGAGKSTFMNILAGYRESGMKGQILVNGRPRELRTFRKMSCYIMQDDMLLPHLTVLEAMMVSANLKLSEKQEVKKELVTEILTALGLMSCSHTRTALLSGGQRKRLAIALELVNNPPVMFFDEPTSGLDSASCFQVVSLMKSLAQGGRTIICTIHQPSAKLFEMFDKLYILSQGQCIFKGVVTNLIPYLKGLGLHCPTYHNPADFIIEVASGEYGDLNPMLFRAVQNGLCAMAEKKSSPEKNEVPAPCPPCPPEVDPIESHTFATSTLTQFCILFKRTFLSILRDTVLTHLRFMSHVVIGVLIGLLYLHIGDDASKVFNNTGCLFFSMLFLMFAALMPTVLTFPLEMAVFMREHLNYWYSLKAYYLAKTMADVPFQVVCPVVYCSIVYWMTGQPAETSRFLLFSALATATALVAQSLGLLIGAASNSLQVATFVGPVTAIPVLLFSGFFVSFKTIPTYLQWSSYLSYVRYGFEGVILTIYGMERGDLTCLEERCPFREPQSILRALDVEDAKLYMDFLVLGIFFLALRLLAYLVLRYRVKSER
Nature of the assay: Dopamine-induced cytotoxicity (MTT assay) in hDAT cells transiently transfected with ABCG4, in the presence of ABC transporter inhibitors. Type of assay: cell-based. Conditions: hDAT-SK-N-MC cells transfected with ABCG4, DA 50 μM for 24 hours, glipizide 250 μM or probenecid 500 μM added two hours prior to DA, FIG. 2.

In another assay the target is ABCC5 transporter (Homo sapiens, UniProt O15440). The note with it: hDAT-SK-N-MC cells transfected with ABCC5; DA 50 μM for 24 hours; glipizide 250 μM or probenecid 500 μM added two hours prior to DA; MTT; FIG. 2.
Sequence of ABCC5 transporter (O15440 whole entry): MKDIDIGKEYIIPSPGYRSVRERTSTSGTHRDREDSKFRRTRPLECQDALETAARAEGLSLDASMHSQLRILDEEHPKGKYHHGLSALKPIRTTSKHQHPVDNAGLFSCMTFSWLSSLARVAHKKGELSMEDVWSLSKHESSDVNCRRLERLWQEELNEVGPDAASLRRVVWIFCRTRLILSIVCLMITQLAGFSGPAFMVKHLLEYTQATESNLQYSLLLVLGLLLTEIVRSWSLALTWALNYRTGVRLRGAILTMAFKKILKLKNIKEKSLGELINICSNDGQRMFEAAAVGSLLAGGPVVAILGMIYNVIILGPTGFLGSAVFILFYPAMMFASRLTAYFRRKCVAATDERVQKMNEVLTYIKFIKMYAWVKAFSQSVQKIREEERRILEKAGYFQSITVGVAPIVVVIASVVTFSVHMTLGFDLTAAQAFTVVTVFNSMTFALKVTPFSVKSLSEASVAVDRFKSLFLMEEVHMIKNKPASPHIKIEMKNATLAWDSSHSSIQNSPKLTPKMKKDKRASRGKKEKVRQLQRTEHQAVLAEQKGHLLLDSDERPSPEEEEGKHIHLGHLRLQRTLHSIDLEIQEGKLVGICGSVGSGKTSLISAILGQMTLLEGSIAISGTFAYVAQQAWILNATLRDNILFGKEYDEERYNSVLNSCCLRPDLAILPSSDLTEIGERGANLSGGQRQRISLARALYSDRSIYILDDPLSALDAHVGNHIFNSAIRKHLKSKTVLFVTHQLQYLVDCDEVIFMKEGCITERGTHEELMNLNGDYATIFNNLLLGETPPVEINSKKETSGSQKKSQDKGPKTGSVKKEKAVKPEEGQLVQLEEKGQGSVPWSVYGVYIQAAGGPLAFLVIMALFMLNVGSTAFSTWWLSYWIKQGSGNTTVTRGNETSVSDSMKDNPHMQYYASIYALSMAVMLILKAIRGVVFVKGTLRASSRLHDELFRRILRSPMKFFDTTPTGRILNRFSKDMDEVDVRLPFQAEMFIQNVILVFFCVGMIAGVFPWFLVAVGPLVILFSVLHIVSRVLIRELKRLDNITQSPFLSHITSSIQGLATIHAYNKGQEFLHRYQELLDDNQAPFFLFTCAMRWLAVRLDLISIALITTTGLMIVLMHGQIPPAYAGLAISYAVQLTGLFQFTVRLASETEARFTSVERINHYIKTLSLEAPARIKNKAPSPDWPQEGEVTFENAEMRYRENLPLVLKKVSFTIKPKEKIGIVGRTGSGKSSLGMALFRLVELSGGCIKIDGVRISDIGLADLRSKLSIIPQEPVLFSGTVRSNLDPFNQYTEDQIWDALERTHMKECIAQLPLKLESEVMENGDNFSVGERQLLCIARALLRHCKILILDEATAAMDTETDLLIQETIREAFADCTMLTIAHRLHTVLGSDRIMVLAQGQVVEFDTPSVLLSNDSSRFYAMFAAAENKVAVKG

Molecules are shown by their SMILES.

Take `CCCN(CCC)S(=O)(=O)c1ccc(C(=O)O)cc1` [probenecid]: the “effect on the protective effect of ABCG4 against dopamine-induced toxicity” value on ABCG4 transporter is reported as “reversed the protective effect”. Besides, the “effect on the protective effect of ABCC5 against dopamine-induced toxicity” value at ABCC5 transporter was “reversed the protective effect”.
